This note sets out measurements from patent US12404243B2, “Inhibitors of the Wnt/beta-catenin pathway” (The Regents of the University of California, priority 2018, dated 2025).

One assay concerns SW480 tumor xenografts. Briefly: Mouse xenografts of SW480 cells. The format is in vivo, nude mice. The settings on record: for actual tumor sizes at the end of treatment / tumor weights at the end of treatment / tumor volumes / tumor sizes at the end of treatment / tumor volume: SW480 xenografts, 10 mg/kg; for tumor growth: mouse xenograft studies of human colon cancer, summary of FIGS. 7A-D, 8A-C, 9A-C; for tumor volume: day 12 to day 21 (FIG. 9A). The protocol:
5×10^5 of SW480 cells were injected subcutaneously into the flank area of 6-8-week-old nude mice. Tumor volume was measured by using an electronic caliper and calculated with the formula length×width^2×0.5, every 2 days. 12 days after inoculation, tumor bearing mice were administered Wnt inhibitors (dissolved in 10% DMSO+20% Cremophor EL+70% normal saline) via intraperitoneal injection for 5 days per week for 10 days at 10 mg/kg. Animal body weights were measured before drug treatments and at the end of the experiments. At the end of the experiments, animals were euthanized with carbon dioxide, followed by cervical dislocation. The tumors were dissected and weighed on the digital balance. We housed mice in pathogen-free facilities under 12-h light and 12-h dark cycle. The animal protocol and experimental procedures were approved by the Division of Laboratory Animal Medicine of UCLA and were in accordance with the US National Institute of Health guidelines.

Assay [1] deals with Wnt/β-catenin-mediated transcription. Briefly: TCF-luciferase activity assay in 293T/Top/β-cat* cells. The assay is classed as cell-based. The settings on record: summary of FIGS. 5A, B (293T/Top cells + LiCl) and 6A-C (293T/Top/β-cat* cells). The protocol: 293T cells were maintained in DMEM medium containing 10% FBS and antibiotics (penicillin and streptomycin) at 37° C. in 5% CO2. Cells were stably infected with lentiviruses expressing the TopFlash reporter (293T/Top cells). The β-catenin mutant (β-cat*, the constitutively active mutant) construct was prepared using the retroviral expression vector by standard PCR. For viral transduction, retrovirus was obtained by co-trasfection of pQCXIP-β-cat* with packaging plasmids into 293T cells following the manufacturer's instructions. 293T/Top stable cells were seeded in 10 cm dish and incubated overnight. The next day cells were treated with retroviral particles. After 12 hours, the medium was replaced with fresh medium. 2 days post virus infection, the cells were selected with puromycin for 5 days to generate the 293T/Top/β-cat* stable cell line.
293 T/Top/β-cat* cells were plated at 40%-50% confluences in 12-well plate for 8 hours and then treated with Wnt inhibitors overnight. The luciferase activity of total cell lysates was measured using Luciferase Assay System (Promega). The related TCF-luciferase activity was normalized against the protein concentration of each cell lysate sample.

Consider `CCN(CC)CCS(=O)(=O)N1C/C(=C\c2ccc(F)c(F)c2)C(=O)/C(=C/c2ccc(F)c(F)c2)C1` [JC098, 1-((2-(Diethylamino)ethyl)sulfonyl)-3,5-bis((E)-3,4-difluorobenzylidene)piperidin-4-one], for which the “actual tumor sizes at the end of treatment” value (“actual tumor sizes at the end” for short) with SW480 tumor xenografts (day 12 to day 20 (FIG. 8B)) is given as “reduced the size of tumors recovered”.

On to `O=C1/C(=C/c2ccc(F)c(F)c2)CN(C(=O)CCC(=O)N2CCCC2)C/C1=C\c1ccc(F)c(F)c1` [JC072, 1-(3,5-Bis((E)-3,4-difluorobenzylidene)-4-oxopiperidin-1-yl)-4-(pyrrolidin-1-yl)butane-1,4-dione], for which the Wnt/β-catenin-mediated transcription entry in assay [1] is reported as “significantly inhibited”.

Regarding `CN(C)CCC(=O)N1C/C(=C\c2ccc(C(F)(F)F)cc2)C(=O)/C(=C/c2ccc(C(F)(F)F)cc2)C1` [JC022, 1-(3-(Dimethylamino)propanoyl)-3,5-bis((E)-4-(trifluoromethyl)benzylidene)piperidin-4-one], the Wnt/β-catenin-mediated transcription result in assay [1] is “significantly inhibited”.

As for `CN(C)CCOc1ccc(NC(=O)C2C/C(=C\c3cc(Cl)cc(Cl)c3)C(=O)/C(=C/c3cc(Cl)cc(Cl)c3)C2)cc1` (stereo not drawn) [JC138, 3,5-Bis((E)-3,5-dichlorobenzylidene)-N-(4-(2-(dimethylamino)ethoxy)phenyl)-4-oxocyclohexane-1-carboxamide], the “actual tumor sizes at the end” value in the assay with SW480 tumor xenografts (day 12 to 22 (FIG. 16A)) is recorded as “reduced the size of tumors recovered”. For the same compound, the “tumor weights at the end of treatment” value with SW480 tumor xenografts (day 12 to 22 (FIG. 16B)) was “significantly reduced the weight of tumors recovered”. Moreover, the tumor volumes result in the assay with SW480 tumor xenografts (day 12 to 22 (FIG. 16C)) is recorded as “significantly reduced tumor volumes”.

`CN(C)CCC(=O)N1C/C(=C\c2cccc(C(F)(F)F)c2)C(=O)/C(=C/c2cccc(C(F)(F)F)c2)C1` [JC018, 1-(3-(Dimethylamino)propanoyl)-3,5-bis((E)-3-(trifluoromethyl)benzylidene)piperidin-4-one]: the Wnt/β-catenin-mediated transcription result in assay [1] was “significantly inhibited”.

Consider `CN(C)CCC(=O)N1C/C(=C\c2ccc(F)c(F)c2)C(=O)/C(=C/c2ccc(F)c(F)c2)C1` [JC026, 3,5-Bis((E)-3,4-difluorobenzylidene)-1-(3-(dimethylamino)propanoyl)piperidin-4-one], for which the Wnt/β-catenin-mediated transcription result in assay [1] is reported as “significantly inhibited”. Further, the tumor volumes entry in the assay with SW480 tumor xenografts (day 12 to 22 (FIG. 7A)) is “significantly reduced tumor volumes”. Moreover, the “tumor sizes at the end of treatment” value with SW480 tumor xenografts (day 12 to 22 (FIG. 7B)) was “significantly reduced the size of tumors recovered”. The “tumor weights at the end of treatment” value in the assay with SW480 tumor xenografts (day 12 to 22 (FIG. 7C)) is given as “significantly reduced the weight of tumors recovered”. Moreover, in the assay on SW480 tumor xenografts, the tumor growth entry is reported as “significantly inhibited the tumor growth”.

Regarding `CN(C)CCC(=O)N1C/C(=C\c2ccccn2)C(=O)/C(=C/c2ccccn2)C1` [JC021, (3E,5E)-1-(3-(Dimethylamino)propanoyl)-3,5-bis(pyridin-2-ylmethylene)piperidin-4-one], in assay [1], the Wnt/β-catenin-mediated transcription entry is on record as “significantly inhibited”.

Consider `CN(C)CCOc1ccc(C(=O)NC2C/C(=C\c3ccc(F)c(F)c3)C(=O)/C(=C/c3ccc(F)c(F)c3)C2)cc1` (stereo not drawn) [JC081, N-(3,5-Bis((E)-3,4-difluorobenzylidene)-4-oxocyclohexyl)-4-(2-(dimethylamino)ethoxy)benzamide], for which the Wnt/β-catenin-mediated transcription entry in assay [1] was “significantly inhibited”. In the assay with SW480 tumor xenografts, the tumor volume entry is listed as “significantly reduce tumor volume” and the tumor growth result was “significantly inhibited the tumor growth”. Also, in the assay with SW480 tumor xenografts (day 12 to day 21 (FIG. 9B)), the “tumor sizes at the end of treatment” value was “significantly reduced the size of the tumors recovered”. In addition, the “tumor weights at the end of treatment” value with SW480 tumor xenografts (day 12 to day 21 (FIG. 9C)) is on record as “significantly reduce the weight of tumors recovered”.

As for `CN(C)CCS(=O)(=O)N1C/C(=C\c2ccc(F)c(F)c2)C(=O)/C(=C/c2ccc(F)c(F)c2)C1` [JC060, 3,5-Bis((E)-3,4-difluorobenzylidene)-1-((2-(dimethylamino)ethyl)sulfonyl)piperidin-4-one], the Wnt/β-catenin-mediated transcription entry in assay [1] is listed as “significantly inhibited”. Further, the tumor volumes entry with SW480 tumor xenografts (day 12 to 22 (FIG. 7A)) is listed as “significantly reduced tumor volumes”. Further, the “tumor sizes at the end of treatment” value in the assay on SW480 tumor xenografts (day 12 to 22 (FIG. 7B)) is on record as “significantly reduced the size of tumors recovered”; with SW480 tumor xenografts (day 12 to day 21 (FIG. 9B)), “significantly reduced the size of the tumors recovered”. The “tumor weights at the end of treatment” value is on record as “significantly reduced the weight of tumors recovered” with SW480 tumor xenografts (day 12 to 22 (FIG. 7C)) and “significantly reduce the weight of tumors recovered” with SW480 tumor xenografts (day 12 to day 21 (FIG. 9C)). Also, the tumor volume result in the assay with SW480 tumor xenografts is “significantly reduce tumor volume”. For the same compound, the tumor growth result in the assay on SW480 tumor xenografts was “significantly inhibited the tumor growth”.

In the case of `CN(C)CCNC(=O)C1C/C(=C\c2cc(Cl)cc(Cl)c2)C(=O)/C(=C/c2cc(Cl)cc(Cl)c2)C1` (stereo not drawn) [JC137, 3,5-Bis((E)-3,5-dichlorobenzylidene)-N-(2-(dimethylamino)ethyl)-4-oxocyclohexane-1-carboxamide], the “actual tumor sizes at the end” value in the assay on SW480 tumor xenografts (day 12 to 22 (FIG. 16A)) was “reduced the size of tumors recovered”.

In the case of `O=C1/C(=C/c2ccc(F)c(F)c2)CN(C(=O)c2ccc(OCCN3CCCCC3)cc2)C/C1=C\c1ccc(F)c(F)c1` [JC082, 3,5-Bis((E)-3,4-difluorobenzylidene)-1-(4-(2-(piperidin-1-yl)ethoxy)benzoyl)piperidin-4-one], in the assay on SW480 tumor xenografts, the tumor volume result was “significantly reduce tumor volume” and the tumor growth entry is on record as “significantly inhibited the tumor growth”. Besides, the “tumor sizes at the end of treatment” value in the assay with SW480 tumor xenografts (day 12 to day 21 (FIG. 9B)) is “significantly reduced the size of the tumors recovered”. In addition, the “tumor weights at the end of treatment” value in the assay with SW480 tumor xenografts (day 12 to day 21 (FIG. 9C)) was “significantly reduce the weight of tumors recovered”.

Take `CN(C)CCC(=O)N1C/C(=C\c2cc(Cl)cc(Cl)c2)C(=O)/C(=C/c2cc(Cl)cc(Cl)c2)C1` [JC028, 3,5-Bis((E)-3,5-dichlorobenzylidene)-1-(3-(dimethylamino)propanoyl)piperidin-4-one]: in assay [1], the Wnt/β-catenin-mediated transcription entry was “significantly inhibited”.

With `O=C1/C(=C/c2ccc(F)c(F)c2)CN(C(=O)CCN2CCCCC2)C/C1=C\c1ccc(F)c(F)c1` [JC048, 3,5-Bis((E)-3,4-difluorobenzylidene)-1-(3-(piperidin-1-yl)propanoyl)piperidin-4-one], the Wnt/β-catenin-mediated transcription entry in assay [1] is recorded as “significantly inhibited”.

Consider `CN(C)CCC(=O)N1C/C(=C\c2ccc(Cl)c(Cl)c2)C(=O)/C(=C/c2ccc(Cl)c(Cl)c2)C1` [JC032, 3,5-Bis((E)-3,4-dichlorobenzylidene)-1-(3-(dimethylamino)propanoyl)piperidin-4-one], for which the Wnt/β-catenin-mediated transcription result in assay [1] is recorded as “significantly inhibited”.

Regarding `CN(C)CCC(=O)NC1C/C(=C\c2ccc(F)c(F)c2)C(=O)/C(=C/c2ccc(F)c(F)c2)C1` (stereo not drawn) [JC070, N-(3,5-Bis((E)-3,4-difluorobenzylidene)-4-oxocyclohexyl)-3-(dimethylamino)propanamide], the Wnt/β-catenin-mediated transcription entry in assay [1] is given as “significantly inhibited”. Further, the tumor volumes result in the assay on SW480 tumor xenografts (day 12 to 22 (FIG. 7A)) is “significantly reduced tumor volumes”. Also, the “tumor sizes at the end of treatment” value with SW480 tumor xenografts (day 12 to 22 (FIG. 7B)) is reported as “significantly reduced the size of tumors recovered”. The “tumor weights at the end of treatment” value in the assay on SW480 tumor xenografts (day 12 to 22 (FIG. 7C)) was “significantly reduced the weight of tumors recovered”. Also, the tumor growth result with SW480 tumor xenografts was “showed some inhibition, but did not reach significance”.
